Measured values from PubChem BioAssay AID1259411 (Chemical Carcinogenesis Research Information System (CCRIS), 2018).
Active and inactive are the calls of the source. How the calls were made is not given here.

Test system: rodent carcinogenicity bioassays, tumor incidence
Assay: CCRIS carcinogenicity studies
Outline: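 NCI-built, expert-reviewed records of carcinogenicity and related test outcomes (mutagenicity, tumor promotion/inhibition) compiled from published and report sources, historical span 1985-2011, not updated.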

Cc1ccc(N)cc1Cl
carcinogen call (Species: MOUSE, Strain/Sex: B6C3F1/FEMALE, Route: ORAL, Dose: 0, 300, 600 PPM IN DIET, Dose: 0, 300, 600 PPM IN DIET): inactive; negative
carcinogen call (Species: MOUSE, Strain/Sex: B6C3F1/MALE, Route: ORAL, Dose: 0, 600, 1200 PPM IN DIET, Dose: 0, 600, 1200 PPM IN DIET): inactive; negative
carcinogen call (Species: RAT, Strain/Sex: F344/FEMALE, Route: ORAL, Dose: 0, 1635, 3269 PPM IN DIET, TWA, Dose: 0, 1635, 3269 PPM IN DIET, TWA): inactive; negative
carcinogen call (Species: RAT, Strain/Sex: F344/MALE, Route: ORAL, Dose: 0, 1635, 3269 PPM IN DIET, TWA, Dose: 0, 1635, 3269 PPM IN DIET, TWA): inactive; negative

S=P(N1CCOCC1)(N1CC1)N1CC1
carcinogen call (Species: MOUSE, Route: INTRAPERITONEAL, Tumor Site: Type of Lesion: LUNG): active; positive

O=[N+]([O-])c1ccc2ccc3ccc([N+](=O)[O-])c4ccc1c2c34
carcinogen call (Species: RAT, Strain/Sex: F344/MALE, Route: SUBCUTANEOUS, Dose: 0, 0.002, 0.02 MG 2/WK FOR 10 WK (STUDY DURATION: 320 D), Dose: 0, 0.002, 0.02 MG 2/WK FOR 10 WK (STUDY DURATION: 320 D), Tumor Site: Type of Lesion: INJECTION SITE: SARCOMA): active; positive
carcinogen call (Species: RAT, Strain/Sex: STRAIN CD/FEMALE, Route: INTRAGASTRIC, Dose: 0, 10 UMOL IN DMSO 3/WK FOR 4 WK (TOTAL DOSE: 16 UMOL/RAT) (STUDY DURATION: 78 WK), Tumor Site: Type of Lesion: ADRENAL GLAND: PHEOCHROMOCYTOMA, CORTICAL ADENOMA, PITUITARY GLAND: CARCINOMA, LIVER: HYPERPLASTIC NODULES, Tumor Site: Type of Lesion: ADRENAL GLAND: PHEOCHROMOCYTOMA, CORTICAL ADENOMA, PITUITARY GLAND: CARCINOMA, LIVER: HYPERPLASTIC NODULES): active; positive
carcinogen call (Species: RAT, Strain/Sex: STRAIN CD/FEMALE, Route: INTRAGASTRIC, Dose: 0, 10 UMOL IN DMSO 3/WK FOR 4 WK (TOTAL DOSE: 16 UMOL/RAT) (STUDY DURATION: 78 WK), Tumor Site: Type of Lesion: MAMMARY GLAND: ADENOCARCINOMA, FIBROADENOMA): active; positive
carcinogen call (Species: RAT, Strain/Sex: STRAIN CD/FEMALE, Route: INTRAPERITONEAL, Dose: 0, 10 UMOL IN DMSO 3/WK FOR 4 WK (TOTAL DOSE: 16 UMOL/RAT) (STUDY DURATION: 78 WK), Tumor Site: Type of Lesion: HEMATOPOIETIC SYSTEM: HISTIOCYTOMA, LEUKEMIA): active; positive
carcinogen call (Species: RAT, Strain/Sex: STRAIN CD/FEMALE, Route: INTRAPERITONEAL, Dose: 0, 10 UMOL IN DMSO 3/WK FOR 4 WK (TOTAL DOSE: 16 UMOL/RAT) (STUDY DURATION: 78 WK), Tumor Site: Type of Lesion: MAMMARY GLAND: ADENOCARCINOMA): active; positive
carcinogen call (Species: RAT, Strain/Sex: STRAIN-CD/FEMALE, Route: SUBCUTANEOUS, Dose: 0, 6.3 UMOL (TOTAL DOSE) ADMINISTERED OVER 8 WK BEGINNING ON DAY OF BIRTH (STUDY DURATION: 67 WK), Tumor Site: Type of Lesion: INTEGUMENTARY SYSTEM: MALIGNANT FIBROUS HISTIOCYTOMA, HEMATOPOIETIC SYSTEM: LEUKEMIA): active; positive

O=[N+]([O-])c1cccc2c1ccc1c3ccccc3ccc21
carcinogen call (Species: MOUSE, Strain/Sex: ICR/FEMALE, Route: INTRAPERITONEAL, Dose: 0, 100 NMOL (TOTAL DOSE) ADMINISTERED IN 3 SUBDOSES OF 1/7, 2/7, AND 4/7 ON DAYS 1, 8 AND 15 OF LIFE, RESPECTIVELY (STUD): inactive; negative
carcinogen call (Species: MOUSE, Strain/Sex: ICR/MALE, Route: INTRAPERITONEAL, Dose: 0, 100 NMOL (TOTAL DOSE) ADMINISTERED IN 3 SUBDOSES OF 1/7, 2/7, AND 4/7 ON DAYS 1, 8 AND 15 OF LIFE, RESPECTIVELY (STUD): inactive; negative

CC(C)OS(C)(=O)=O
carcinogen call (Species: MOUSE, Strain/Sex: ICR/FEMALE, Route: SUBCUTANEOUS, Dose: 0, 10 UMOL/MOUSE IN TRIOCTANOIN INTO LEFT FLANK, 1/WK FOR 139 D (STUDY DURATION: 139 D), Tumor Site: Type of Lesion: THYMUS GLAND: LYMPHOMA): active; positive

CCSC(C)CC1CC(=O)C(/C(CC)=N/OC/C=C/Cl)=C(O)C1 (configuration not stated)
carcinogen call (Species: Mouse, Strain/Sex: ???/Female (50/group), Route: Oral, Dose: 0, 20, 200, 1,000, 2,000 ppm increased to 3,000 ppm after 15th wk in diet for 78 wk, Dose: 0, 20, 200, 1,000, 2,000 ppm increased to 3,000 ppm after 15th wk in diet for 78 wk): inactive; negative (study details not given in source; purity 83.3%)
carcinogen call (Species: Mouse, Strain/Sex: ???/Male (50/group), Route: Oral, Dose: 0, 20, 200, 1,000, 2,000 ppm increased to 3,000 ppm after 15th wk in diet for 78 wk, Dose: 0, 20, 200, 1,000, 2,000 ppm increased to 3,000 ppm after 15th wk in diet for 78 wk): inactive; negative (study details not given in source; purity 83.3%)

O=NN1CC=CC[C@H]1c1cccnc1
carcinogen call (Species: RAT, Strain/Sex: F344/FEMALE, Route: SUBCUTANEOUS, Dose: 0, 1, 3, 9 MMOL/KG BW (TOTAL DOSE) WITH SUBDOSES GIVEN 3/WK FOR 20 WK WITH A 2 WK INTERRUPTION AFTER 7 WK (STUDY DURATIO, Dose: 0, 1, 3, 9 MMOL/KG BW (TOTAL DOSE) WITH SUBDOSES GIVEN 3/WK FOR 20 WK WITH A 2 WK INTERRUPTION AFTER 7 WK (STUDY DURATIO): inactive; negative
carcinogen call (Species: RAT, Strain/Sex: F344/MALE, Route: SUBCUTANEOUS, Dose: 0, 1, 3, 9 MMOL/KG BW (TOTAL DOSE) WITH SUBDOSES GIVEN 3/WK FOR 20 WK WITH A 2 WK INTERRUPTION AFTER 7 WK (STUDY DURATIO, Dose: 0, 1, 3, 9 MMOL/KG BW (TOTAL DOSE) WITH SUBDOSES GIVEN 3/WK FOR 20 WK WITH A 2 WK INTERRUPTION AFTER 7 WK (STUDY DURATIO): inactive; negative

CNC(=O)Oc1cccc(N=CN(C)C)c1
carcinogen call (Species: Mouse, Strain/Sex: Crl:CD-1(ICR) BR/Female (50/Group), Route: Oral, Dose: 0, 10, 50, 500 ppm of 95.7% formetanate HCl in diet for 104 wk, study duration 104 wk, Dose: 0, 10, 50, 500 ppm of 95.7% formetanate HCl in diet for 104 wk, study duration 104 wk): inactive; negative
carcinogen call (Species: Mouse, Strain/Sex: Crl:CD-1(ICR) BR/Male (50/Group), Route: Oral, Dose: 0, 10, 50, 500 ppm of 95.7% formetanate HCl in diet for 104 wk, study duration 104 wk, Dose: 0, 10, 50, 500 ppm of 95.7% formetanate HCl in diet for 104 wk, study duration 104 wk): inactive; negative
carcinogen call (Species: Rat, Strain/Sex: Crl:COBS CD(SD)BR/Female (50/Group), Route: Oral, Dose: 0, 10, 50, 250 ppm of 95.1-96% formetanate HCl in diet for 104 wk, study duration 104 wk, Dose: 0, 10, 50, 250 ppm of 95.1-96% formetanate HCl in diet for 104 wk, study duration 104 wk): inactive; negative
carcinogen call (Species: Rat, Strain/Sex: Crl:COBS CD(SD)BR/Male (50/Group), Route: Oral, Dose: 0, 10, 50, 250 ppm of 95.1-96% formetanate HCl in diet for 104 wk, study duration 104 wk, Dose: 0, 10, 50, 250 ppm of 95.1-96% formetanate HCl in diet for 104 wk, study duration 104 wk): inactive; negative

COS(=O)(=O)OC
carcinogen call (Species: RAT, Route: INHALATION, Tumor Site: Type of Lesion: NASAL CAVITY, BRAIN): active; positive
carcinogen call (Species: RAT, Route: SUBCUTANEOUS, Tumor Site: Type of Lesion: INJECTION SITE): active; positive

Oc1cc(Cl)ccc1Oc1ccc(Cl)cc1Cl
carcinogen call (Species: Hamster, Strain/Sex: Bio FID Alexander Syrian/Female (60/group), Route: Oral, Dose: 0, 12.5, 75, 250 mg/kg in diet for 90-95 wk, Dose: 0, 12.5, 75, 250 mg/kg in diet for 90-95 wk): inactive; negative (study details not given in source; purity 99.5%)
carcinogen call (Species: Hamster, Strain/Sex: Bio FID Alexander Syrian/Male (60/group), Route: Oral, Dose: 0, 12.5, 75, 250 mg/kg in diet for 90-95 wk, Dose: 0, 12.5, 75, 250 mg/kg in diet for 90-95 wk): inactive; negative (study details not given in source; purity 99.5%)
carcinogen call (Species: Rat, Strain/Sex: Sprague-Dawley/Female (60/group), Route: Oral, Dose: 0, 300, 1,200, 3,000 ppm in diet for 78 wk, Dose: 0, 300, 1,200, 3,000 ppm in diet for 78 wk): inactive; negative (study details not given in source; purity 99%)
carcinogen call (Species: Rat, Strain/Sex: Sprague-Dawley/Male (60/group), Route: Oral, Dose: 0, 300, 1,200, 3,000 ppm in diet for 78 wk, Dose: 0, 300, 1,200, 3,000 ppm in diet for 78 wk): inactive; negative (study details not given in source; purity 99%)

CC(=O)Nc1ccc(C(=O)CCl)cc1
carcinogen call (Species: MOUSE, Strain/Sex: B6C3F1/FEMALE, Route: ORAL, Dose: 0, 5000, 10000 PPM IN DIET, Dose: 0, 5000, 10000 PPM IN DIET): inactive; negative
carcinogen call (Species: MOUSE, Strain/Sex: B6C3F1/MALE, Route: ORAL, Dose: 0, 5000, 10000 PPM IN DIET, Dose: 0, 5000, 10000 PPM IN DIET): inactive; negative
carcinogen call (Species: RAT, Strain/Sex: F344/FEMALE, Route: ORAL, Dose: 0, 1000, 2000 PPM IN DIET, Dose: 0, 1000, 2000 PPM IN DIET): inactive; negative
carcinogen call (Species: RAT, Strain/Sex: F344/MALE, Route: ORAL, Dose: 0, 1000, 2000 PPM IN DIET, Dose: 0, 1000, 2000 PPM IN DIET): inactive; negative
